Test results as given in US20190328691A1, “ANTIBIOTIC THERAPY” (Boulos & Cooper Pharmaceuticals Pty Ltd, priority 2015, published 2019).
Values joined by “and” are separate entries in the source; they are usually repeats but may differ in a detail not shown here. Equal values may be shown once. Read-outs that look alike come from different tables or passages of the source.

What was measured:
[1] = system: Staphylococcus aureus (BAA-1717); assay: Checkerboard combination / MIC assay with S. aureus BAA-1717 (MRSA); type: cell-based; conditions: for MIC: Staphylococcus aureus, ATCC BAA-1717 / BAA-1717, read-out: MIC of antibiotic alone
Experimental: (§1) Colonies were suspended in PBS. The absorbance of each suspension was measured with a spectrophotometer, and then the suspension was adjusted to 1×10^6 CFU/mL. The testing inoculum was prepared within 20 minutes before adding to wells of the test plate. Final cellular density in the checkerboard assays was 5×10^5 CFU/mL.
(§2) The combination effect of antibacterial substances administered together was evaluated by an in vitro checkerboard combination method with Staphylococcus aureus (ATCC 29213) and Staphylococcus aureus (BAA-1717). Ramizol and Chlopam were tested alone in 11 points by two-fold serial titration and in combination with different commercial antibiotics which were tested in a 7-point titration alone and in combination with Ramizol and Chlopam using the checkerboard technique as recommended by the Clinical & Laboratory Standards Institute (CLSI. Methods for Dilution In Antimicrobial Susceptibility Tests for Bacteria That Grow Aerobically; Approved Standard-Eighth Edition. CLSI document M07-A8 (ISBN 1-56238-689-1). Vol. 29 No. 2. Clinical and Laboratory Standards Institute, USA, 2009). The commercial antibiotics were also tested alone. Twenty-four checkerboard tests were performed.
(§3) The starting concentration of Ramizol, Chlopam, and the commercial antibiotics was four fold of the MIC. The testing range for each combination was described in the following summary tables.
(§4) Compound dilutions of Ramizol and Chlopam were performed in 100% DMSO and the final DMSO concentration in all test wells was 2%. Growth control wells also included 2% DMSO. CLSI protocol was followed for medium, inoculum preparation, and endpoint reading. The commercial antibiotics were dissolved and diluted in the CLSI specified diluent. The final inoculum count for each strain was 5×10^5 CFU/mL.
Each test substance was dissolved and diluted in 100% DMSO or specified solvent. Each test substance dilution (2 μL) was added to 96 μL broth CAMHB. CAMHB seeded with S. aureus BAA-1717 at 1×10^6 CFU/mL (100 μL) was then added to the plate to generate a final cell count at 5×10^5 CFU/mL.
(§5) Assay plates were incubated and MIC endpoints were read as described in the MIC assay. FIC (Fraction Inhibitory Concentration) and FIC Index (FICI) values for each test condition and the average of FICI values of all pairwise combinations were calculated to determine if synergy or antagonism existed between the two substances. The FIC index was determined by calculating the sum of the ratios of MICs for both substances. Arithmetically, the FIC Index of a combination of Substance 1 and Substance 2 was defined as following: FICI=Σ[FIC(Substance 1)+FIC(Substance 2)]=[(MIC of Substance 1 in combination/MIC of Substance 1 alone)+(MIC of Substance 2 in combination/MIC of Substance 2 alone)]. Synergy is defined as the FICI (Σ)≤0.5; additivity as FICI (Σ)>0.5 to ≤1; indifference as FICI (Σ)>1 to ≤4; antagonism is defined as the FICI (Σ)>4 (Zinner and Blaser, J. Journal of Antimicrobial Chemotherapy (1986), 17, 1-5; Amin, et al BMC Complementary & Alternative Medicine (2015), 15, 59; Zuo, et al. Molecules (2011), 16, 9819-9826).

[2] = system: Staphylococcus aureus (ATCC 29213); assay: Checkerboard combination / MIC assay with S. aureus ATCC 29213; type: cell-based; conditions: S. aureus ATCC 29213; for MIC: Staphylococcus aureus, read-out: MIC of antibiotic alone
Experimental: as §1, §2, §3, §4
Cefepime, Daptomycin, Linezolid, Mupirocin, Oxacillin and Vancomycin were also tested alone. Each test substance was dissolved and diluted in 100% DMSO or specified solvent. Each test substance dilution (2 μL) was added to 96 μL broth CAMHB. CAMHB seeded with S. aureus ATCC 29213 at 1×10^6 CFU/mL (100 μL) was then added to the plate to generate a final cell count at 5×10^5 CFU/mL.
as §5

[3] = ATCC29213, Table 4, checkerboard series with Chlopam
[4] = ATCC29213, Table 7, checkerboard series with Ramizol

## O=C(O)Cc1ccc(/C=C/c2cc(/C=C/c3ccc(CC(=O)O)cc3)cc(/C=C/c3ccc(CC(=O)O)cc3)c2)cc1 [Chlopam, 2,2′,2″-{[(1E,1′E,1″E)-benzene-1,3,5-triyltris(ethene-2,1-diyl)]tris(benzene-4,1-diyl)}triacetic acid]
[1]; Table 4, checkerboard series with Chlopam, S. aureus ATCC BAA-1717
  MIC: 1 µg/mL
[2]; [3]
  MIC: 0.5 µg/mL

## Cc1onc(-c2ccccc2)c1C(=O)N[C@@H]1C(=O)N2[C@@H]1SC(C)(C)[C@@H]2C(=O)O [Oxacillin]
[1]; Chlopam 0.001953 μg/mL + labelled antibiotic at MIC of same cell, S. aureus ATCC BAA-1717
  FICI of combination with Chlopam: 1.0
[1]; Chlopam 0.003906 μg/mL + labelled antibiotic at MIC of same cell, S. aureus ATCC BAA-1717
  FICI of combination with Chlopam: 1.0
[1]; Chlopam 0.0078125 μg/mL + labelled antibiotic at MIC of same cell, S. aureus ATCC BAA-1717
  FICI of combination with Chlopam: 1.0
[1]; Ramizol 0.015625 μg/mL + labelled antibiotic at MIC of same cell, S. aureus ATCC BAA-1717
  FICI of combination with Ramizol: 1.0
[1]; Ramizol 0.03125 μg/mL + labelled antibiotic at MIC of same cell, S. aureus ATCC BAA-1717
  FICI of combination with Ramizol: 1.0
[1]; Ramizol 0.0625 μg/mL + labelled antibiotic at MIC of same cell, S. aureus ATCC BAA-1717
  FICI of combination with Ramizol: 1.0
[1]; labelled antibiotic + Chlopam, mean of all pairwise combinations, S. aureus ATCC BAA-1717
  mean FICI of combination with Chlopam: 1.2
[1]; labelled antibiotic + Ramizol, S. aureus BAA-1717
  Effect of the combinations with Ramizol (by mean FICI): additive effect
[1]; labelled antibiotic + Ramizol, mean of all pairwise combinations, S. aureus ATCC BAA-1717
  mean FICI of combination with Ramizol: 0.9
[2]; Chlopam 0.003906 μg/mL + labelled antibiotic at MIC of same cell
  FICI of combination with Chlopam: 1.0
[2]; Chlopam 0.003906 μg/mL
  MIC of antibiotic in combination with Chlopam: 0.5 µg/mL
[2]; Chlopam 0.0078125 μg/mL + labelled antibiotic at MIC of same cell
  FICI of combination with Chlopam: 1.0
[2]; Chlopam 0.0078125 μg/mL
  MIC of antibiotic in combination with Chlopam: 0.5 µg/mL
[2]; Chlopam 0.015625 μg/mL + labelled antibiotic at MIC of same cell
  FICI of combination with Chlopam: 1.0
[2]; Chlopam 0.015625 μg/mL
  MIC of antibiotic in combination with Chlopam: 0.5 µg/mL
[2]; Chlopam 0.125 μg/mL + labelled antibiotic at MIC of same line
  FICI of combination with Chlopam: 0.5 and 0.8
[2]; Chlopam 0.125 μg/mL
  MIC of antibiotic in combination with Chlopam: 0.125 µg/mL and 0.25 µg/mL
[2]; Chlopam 0.25 μg/mL + labelled antibiotic at MIC of same cell
  FICI of combination with Chlopam: 0.8
[2]; Chlopam 0.25 μg/mL
  MIC of antibiotic in combination with Chlopam: 0.125 µg/mL
[2]; Chlopam 0.5 μg/mL + labelled antibiotic at MIC of same cell
  FICI of combination with Chlopam: 1.0
[2]; Chlopam 0.5 μg/mL
  MIC of antibiotic in combination with Chlopam: 0.01563 µg/mL
[2]; Chlopam and Oxacillin: 0.0125 and 0.125 μg/mL
  Effect of individual antibiotic combinations of lower concentrations: synergistic effect
[2]; Ramizol 0.015625 μg/mL + labelled antibiotic at MIC of same cell
  FICI of combination with Ramizol: 1.0
[2]; Ramizol 0.015625 μg/mL
  MIC of antibiotic in combination with Ramizol: 0.5 µg/mL
[2]; Ramizol 0.03125 μg/mL + labelled antibiotic at MIC of same cell
  FICI of combination with Ramizol: 1.0
[2]; Ramizol 0.03125 μg/mL
  MIC of antibiotic in combination with Ramizol: 0.5 µg/mL
[2]; Ramizol 0.0625 μg/mL + labelled antibiotic at MIC of same cell
  FICI of combination with Ramizol: 1.0
[2]; Ramizol 0.0625 μg/mL
  MIC of antibiotic in combination with Ramizol: 0.5 µg/mL
[2]; Ramizol 0.125 μg/mL + labelled antibiotic at MIC of same cell
  FICI of combination with Ramizol: 1.0
[2]; Ramizol 0.125 μg/mL
  MIC of antibiotic in combination with Ramizol: 0.5 µg/mL
[2]; Ramizol 4 μg/mL + labelled antibiotic at MIC of same cell
  FICI of combination with Ramizol: 1.0
[2]; Ramizol 4 μg/mL
  MIC of antibiotic in combination with Ramizol: 0.016 µg/mL
[2]; [3]
  MIC: 0.5 µg/mL
[2]; [4]
  MIC: 0.5 µg/mL
[2]; labelled antibiotic + Chlopam
  Effect of the combinations with Chlopam (by mean FICI): additive effect
[2]; labelled antibiotic + Chlopam, mean of all pairwise combinations
  mean FICI of combination with Chlopam: 1.0
[2]; labelled antibiotic + Ramizol, mean of all pairwise combinations
  mean FICI of combination with Ramizol: 1.2

## O=C(O)c1ccc(/C=C/c2cc(/C=C/c3ccc(C(=O)O)cc3)cc(/C=C/c3ccc(C(=O)O)cc3)c2)cc1 [Ramizol, 1,3,5-Tris[(1E)-2′-(4″-benzoic acid)vinyl]benzene]
[1]; Table 7, checkerboard series with Ramizol, S. aureus ATCC BAA-1717
  MIC: 4 µg/mL
[2]; [4]
  MIC: 4 µg/mL
